Measurements as given in patent US6921545B2 (priority 2001, dated 2005).
Several values for one entry are separate records, joined by “and”; a condition that tells them apart may be missing. Equal values may be shown once. Where a name gives a salt, the structure may show the parent alone.

What was measured:
insect eggs = settings: in vivo; cited from earlier work
[1] = tested on: Sitophilus granarius (broodmixture); settings: in vivo
[2] = tested on: Tribolium castaneum 30 live beetles and brood; settings: in vivo
[3] = tested on: Ephestia kuehniella (50 eggs); settings: in vivo
[4] = tested on: Sitophilus granarius, Ephestia kuehniella eggs, Tribolium castaneum and brood; settings: in vivo

| Compound | minimum concentration for achieving an ovicidal action (insect eggs) [g/m^3] | also measured |
| --- | --- | --- |
| COC=O [methyl formate] | 20 | – |
| CN=C=S [methyl isothiocyanate] | 5 | – |
| CC#N [acetonitrile] | 10 | – |
| O=S(=O)(F)F [SO2F2, sulfuryl fluoride] | – | Offspr. (offspring in the fumigation test) [1]: 0 beetles; Offspr. (offspring in the fumigation test) [2]: 3 beetles and 4 beetles and 5 beetles; Offspr. (offspring in the fumigation test) [3]: 0; offspring produced [4]: offspring were produced |
| O=C=S [carbonyl sulfide] | 5 | – |
